From US6514953B1, “Calcium (3S) tetrahydro-3-furanyl(1S,2R)-3-[[(4-aminophenyl)sulfonyl](isobutyl)amino]-1-benzyl-2-(phosphonooxy)propylcarbamate” (SmithKline Beecham Corporation, priority 1998, dated 2003)
≈ marks a conversion by molar mass, not a printed value.

Test: physchem

| solubility (0.1N HCl, pH 1, simulated gastric fluid) | solubility (aqueous solution, pH 6.3, aqueous buffer) | Compound | solubility (pH 1.47, simulated gastric fluid) | solubility (pH 3.27, aqueous buffer) | solubility (pH 4.11, aqueous buffer) | solubility (pH 5.02, aqueous buffer) | solubility (pH 6.27, aqueous buffer) |
| --- | --- | --- | --- | --- | --- | --- | --- |
| – | – | CC(C)CN(C[C@@H](OP(=O)([O-])[O-])[C@H](Cc1ccccc1)NC(=O)O[C@H]1CCOC1)S(=O)(=O)c1ccc(N)cc1.[Ca+2] [compound of formula (I), calcium (3S) tetrahydro-3-furanyl (1S,2R)-3-[[(4-aminophenyl)sulfonyl](isobutyl)amino]-1-benzyl-2-(phosphonooxy)propylcarbamate] | 3200 µg/mL | 61100 µg/mL | 9410 µg/mL | 3200 µg/mL | 531 µg/mL |
| 290 µg/mL (≈ 574 µM) | 95 µg/mL (≈ 188 µM) | CC(C)CN(C[C@@H](O)[C@H](Cc1ccccc1)NC(=O)O[C@H]1CCOC1)S(=O)(=O)c1ccc(N)cc1 (relative stereo) [amprenavir, [3S-[3R*(1R*,2S*)]]-[3-[[(4-aminophenyl)sulfonyl](2-methyl-propyl)amino]-2-hydroxy-1-phenylmethyl)propyl]-tetrahydro-3-furanyl ester, reference compound] | – | – | – | – | – |
